In the Deep4Chem optical property database one finds photoluminescence quantum yield data, which are given here for 46 compounds.

This series in a line: photoluminescence quantum yield (fraction); solvent given as SMILES.

Turning to `CCOC(=O)c1ccc2c(c1)[nH]c1c3ccc(C(=O)OCC)cc3[nH]c21`, the photoluminescence quantum yield (in CCCO) came to 0.57.
Regarding `CCCSc1ccc2n1[B-](F)(F)[N+]1=CC=CC1=C2c1ccccc1`, the photoluminescence quantum yield reads like this: (in CC#N) 0.03; (in CCCCCC) 0.03; (in CCOC(C)=O) 0.03; (in CO) 0.02; (in ClCCl) 0.04.
As for `CN(C)c1ccc(C2=Nc3scc(-c4ccc(C#N)cc4)[n+]3[B-](F)(F)O2)cc1`, the photoluminescence quantum yield turned out to be 0.23 (in C1CCOC1), 0.02 (in CC#N), 0.62 (in Cc1ccccc1) and 0.61 (in ClCCl).
In turn, `CCCC1(CCC)c2cc(-c3ccc(C(C)(C)C)cc3)ccc2-c2ccc(-c3ccc4c(c3)C(CCC)(CCC)c3cc(-c5ccc(C(C)(C)C)cc5)ccc3-4)cc21` displayed a photoluminescence quantum yield (in C1CCCCC1) of 0.92.
Regarding `O=Cc1ccc(C2=C3C=c4c(oc5ccccc45)=[N+]3[B-](F)(F)n3c2cc2c4ccccc4oc23)cc1`, the photoluminescence quantum yield was 0.63 (in C1CCCCC1); 0.42 (in C1CCOC1); 0.37 (in CC#N); 0.39 (in CCOC(C)=O); 0.45 (in CN(C)C=O); 0.44 (in CO). Moreover, the photoluminescence quantum yield by setting is: (in Cc1ccccc1) 0.53; (in ClCCl) 0.5.
In turn, `O=C1CCCC2=C1C(c1ccc([N+](=O)[O-])cc1)c1c(c3ccccc3oc1=O)N2` (configuration not stated) had a photoluminescence quantum yield (in CS(C)=O) of 0.014.
With `C(=C\c1ccc(-c2nnc(-c3ccccc3)o2)cc1)/c1ccc(-c2nnc(-c3ccccc3)o2)cc1`, the photoluminescence quantum yield (in CN(C)C=O) came out at 0.8.
Turning to `Cc1cc(C)c(B(c2c(C)cc(C)cc2C)N2c3ccccc3C(c3ccccc3)(c3ccccc3)c3ccccc32)c(C)c1`, the photoluminescence quantum yield is, setting by setting: (in C1CCCCC1) 0.732; (in Cc1ccccc1) 0.974; (in ClCCl) 0.891.
As for `CCC1(CC)c2cc(B(c3c(C)cc(C)cc3C)c3c(C)cc(C)cc3C)ccc2-c2c1c1c(c3c2C(CC)(CC)c2cc(N(c4ccccc4)c4ccccc4)ccc2-3)C(CC)(CC)c2cc(N(c3ccccc3)c3ccccc3)ccc2-1`, the photoluminescence quantum yield (in C1CCOC1) worked out at 0.21.
Consider `Cc1cc2c3ccccc3oc2c2[nH]c3ccccc3c12`, for which the photoluminescence quantum yield (in ClCCl) was determined as 0.444.
As for `Cn1c(=O)cc(C(=O)c2ccccc2)c2sc(-c3ccc(OC(F)(F)F)cc3)cc21`, the photoluminescence quantum yield (in CC#N) stood at 0.65 and the photoluminescence quantum yield (in ClCCl) amounted to 0.85.
In the case of `CC1=[N+]2C(=C(c3ccc(C(=C(c4ccccc4)c4ccccc4)c4ccccc4)cc3)c3ccc(C)n3[B-]2(F)F)C=C1`, the photoluminescence quantum yield (in C1CCOC1) was 0.038.
Take `COc1ccc2c(c1)[nH]c1c3[nH]c4cc(OC)ccc4c3c3nsnc3c21`: the photoluminescence quantum yield reads like this: (in CN(C)C=O) 0.47; (in Cc1ccccc1) 0.5; (in ClCCl) 0.5.
With `CCN(CC)c1ccc2cc(C#N)/c(=N\C(=O)c3ccco3)oc2c1`, the photoluminescence quantum yield by setting is: (in CCO) 0.033; (in ClCCl) 0.9.
Regarding `CC(C)[Si](C#Cc1ccc2c(C#C[Si](C(C)C)(C(C)C)C(C)C)cc3c4cc(C#C[Si](C(C)C)(C(C)C)C(C)C)ccc4c(C#C[Si](C(C)C)(C(C)C)C(C)C)cc3c2c1)(C(C)C)C(C)C`, the photoluminescence quantum yield (in ClCCl) worked out at 0.741.
For the compound `CC1=N/C(=C\c2cccc(N(C)C)c2)C(=O)N1C`, the photoluminescence quantum yield reads like this: (in C1CCOC1) 0.14; (in CC#N) 0.05; (in CCCCCC) 0.46.
For the compound `COc1cc(C2=CC3=C(c4c(C)cc(C)cc4C)c4cc(-c5cc(OC)c(OC)c(OC)c5)c(-c5cc(OC)c(OC)c(OC)c5)n4[B-](F)(F)[N+]3=C2c2cc(OC)c(OC)c(OC)c2)cc(OC)c1OC`, the photoluminescence quantum yield by setting is: (in C1CCCCC1) 0.33; (in C1CCOC1) 0.08; (in CC#N) 0.02; (in Cc1ccccc1) 0.16; (in ClCCl) 0.05.
Regarding `CN(C)CCCN1c2ccccc2Sc2ccc(C(F)(F)F)cc21`, the photoluminescence quantum yield reads like this: (in CC#N) 0.0011; (in CO) 0.001; (in O) 0.0014.
Take `CCn1c2ccsc2c2c3nsnc3c3c4sccc4n(CC)c3c21`: the photoluminescence quantum yield came to 0.68 (in C1CCOC1); 0.63 (in CCOC(C)=O); 0.42 (in CN(C)C=O); 0.73 (in Cc1ccccc1); 0.33 (in ClCCl).
Take `CC(C)(C)c1ccc(-c2cc(-c3ccc(-c4cc(-c5ccc(C(C)(C)C)cc5)c(C(=O)NCc5cccs5)s4)s3)sc2C(=O)NCc2cccs2)cc1`: for the setting “in ClCCl”, the photoluminescence quantum yield turned out to be 0.33.
The compound `C(#Cc1cnc(C#Cc2ccccc2)nc1)c1ccccc1` yielded a photoluminescence quantum yield (in C1CCCCC1) of 0.0009.
The compound `COc1ccccc1C1=[N+]2C(=C(c3ccccc3)c3c4c(c(-c5ccccc5OC)n3[B-]2(F)F)C2CCC4CC2)C2=C1C1CCC2CC1` showed a photoluminescence quantum yield (in ClCCl) of 0.77.
In the case of `CCCCCCCCCCOc1ccc2c3c(oc2c1)C1=C2C(=O)N4C=Cc5c(oc6cc(OCCCCCCCCCC)ccc56)C4=C2C(=O)N1C=C3`, the photoluminescence quantum yield is 0.5 (in CN(C)C=O) and 0.7 (in ClC(Cl)Cl).
On to `Cc1cc(C)c(C2=C3C=CC(c4ccccc4O)=[N+]3[B-]3(c4ccccc4)Oc4ccccc4-c4ccc2n43)c(C)c1` (configuration not stated), for which, under “in ClC(Cl)Cl”, the photoluminescence quantum yield was determined as 0.65.
With `[NH3+]C(Cc1ccc(O)c(O)c1)C(=O)[O-]` (configuration not stated), the photoluminescence quantum yield (in O) is 0.075.
For the compound `CN(C)c1ccc(/C=C/C(=O)O)cc1`, the photoluminescence quantum yield by setting is: (in C1CCOC1) 0.0134; (in CC#N) 0.0205; (in CCCCO) 0.0071; (in O) 0.002; (in c1ccccc1) 0.0112.
Turning to `COc1ccc(C2=C(c3ccc(OC)cc3)c3cccc4c3c(cc3nc5ccccc5nc34)O2)cc1`, the photoluminescence quantum yield (in ClCCl) worked out at 0.48.
`CC1(C)CC(=O)C2=C(C1)Oc1ccc3cc(O)ccc3c1C2c1ccccn1` (configuration not stated): the photoluminescence quantum yield by setting is: (in C1CCOC1) 0.062; (in C1COCCO1) 0.028; (in CC#N) 0.082; (in CCCCCCC) 0.05; (in CCO) 0.067; (in CO) 0.066. Moreover, the photoluminescence quantum yield (in O) was determined as 0.38.
`CCCCCCCCOc1ccc(C2=C3C(C)=C(C#Cc4ccc(B(c5c(C)cc(C)cc5C)c5c(C)cc(C)cc5C)cc4)C(C)=[N+]3[B-](F)(F)n3c(C)c(C#Cc4ccc(B(c5c(C)cc(C)cc5C)c5c(C)cc(C)cc5C)cc4)c(C)c32)cc1` had a photoluminescence quantum yield (in ClCCl) of 0.65.
As for `Cc1cc(C)c(C2=C3C=c4c(c5ccc(C(C)(C)C)cc5c5cc(C(C)(C)C)ccc45)=[N+]3[B-](F)(F)n3c2cc2c4ccc(C(C)(C)C)cc4c4cc(C(C)(C)C)ccc4c23)c(C)c1`, the photoluminescence quantum yield (in C1CCCCC1) turned out to be 0.3; the photoluminescence quantum yield (in C1CCOC1) amounted to 0.25; the photoluminescence quantum yield (in CC#N) came out at 0.24; the photoluminescence quantum yield (in Cc1ccccc1) was 0.29; the photoluminescence quantum yield (in ClCCl) is 0.25.
With `CCCc1ccc(C#Cc2cc(C#Cc3ccc(N(C)C)cc3)c3ccc4c(C#Cc5ccc(N(C)C)cc5)cc(C#Cc5ccc(N(C)C)cc5)c5ccc2c3c54)cc1`, the photoluminescence quantum yield (in ClCCl) was 0.47.
Compound `CC[n+]1c(C=C2C(=O)C(C=C3Sc4cc(Cl)ccc4N3C)=C2[O-])[se]c2ccccc21` yielded a photoluminescence quantum yield (in CC(C)O) of 0.17.
For `COCCC1=Cc2nc1ccc1[nH]c(cc1CCOC)c1nc(ccc3[nH]c2cc3CCO)C(CCOC)=C1`, the photoluminescence quantum yield (in Cc1ccccc1) was 0.32.
In turn, `COc1cc(OC)cc(C2=CC(c3ccccc3)=C(c3ccccc3)C2)c1` showed a photoluminescence quantum yield (in ClCCl) of 0.0361.
`C=Cc1ccc(-c2ccc(-c3nnc(-c4ccc(-c5nnc(-c6ccc(-c7ccc(C=C)cc7)s6)o5)cc4)o3)s2)cc1` displayed a photoluminescence quantum yield (in ClC(Cl)Cl) of 0.62.
Still for that read-out and setting: the figure for `CCCCCCc1ccc(-n2c3c4cccc(OC)c4nc(-c4ccc(C)cc4)c3c3c2c2c(-c4ccc(C)cc4)nc4c(OC)cccc4c2n3-c2ccc(CCCCCC)cc2)cc1` is 0.02.
With `N#Cc1c(-n2c3ccc(Br)cc3c3cc(Br)ccc32)c(C#N)c(-n2c3ccc(Br)cc3c3cc(Br)ccc32)c(-n2c3ccc(Br)cc3c3cc(Br)ccc32)c1-n1c2ccc(Br)cc2c2cc(Br)ccc21`, the photoluminescence quantum yield (in Cc1ccccc1) was 0.67.
In the case of `c1ccc(-c2nc(-c3ccc(-c4cccs4)s3)[nH]c2-c2ccccc2)cc1`, the photoluminescence quantum yield (in CC#N) was 0.24.
As for `CN(C)c1ccc2c(c1)COc1c-2oc2ccccc2c1=O`, the photoluminescence quantum yield (in C1CCCCC1) stood at 0.5; the photoluminescence quantum yield (in C1CCOC1) was 0.91; the photoluminescence quantum yield (in CC#N) is 0.86; the photoluminescence quantum yield (in CCOC(C)=O) is 0.95; the photoluminescence quantum yield (in CCOCC) was 1; the photoluminescence quantum yield (in CO) is 0.68. For the setting “in Cc1ccccc1”, the photoluminescence quantum yield came to 1.
On to `CNCCCC1c2ccccc2C=Cc2ccccc21`, for which the photoluminescence quantum yield was found to be 0.56 (in CC#N), 0.55 (in CO) and 0.62 (in O).
Turning to `Cc1ccc2nc(-c3cccc4nc(C)[nH]c(=O)c34)[nH]c2c1`, for the setting “in CN(C)C=O”, the photoluminescence quantum yield turned out to be 0.036.
For the setting “in CC#N”, `Cc1cc2nc3c(=O)[nH]c(=O)nc-3n(C)c2cc1C` returned a photoluminescence quantum yield of 0.16.
Take `COc1ccc2cc(C3=[N+]4C(=Nc5c(-c6ccc7ccccc7c6)cc(-c6ccc7cc(OC)ccc7c6)n5[B-]4(F)F)C(c4ccc5ccccc5c4)=C3)ccc2c1`: the photoluminescence quantum yield (in ClCCl) was determined as 0.29.
Turning to `NCc1ccc2ccc3cccc4ccc1c2c34`, the photoluminescence quantum yield is, setting by setting: (in C1CCCCC1) 0.38; (in CC#N) 0.52; (in CO) 0.3; (in ClC(Cl)Cl) 0.07.
For the setting “in ClC(Cl)Cl”, `c1ccc(-c2nc3c(-c4ccc(N(c5ccccc5)c5ccccc5)cc4)ccc(-c4ccc(N(c5ccccc5)c5ccccc5)cc4)c3nc2-c2ccccc2)cc1` registered a photoluminescence quantum yield of 0.51.
Regarding `CCCCOc1ccc2cc(-c3ccc(C)cc3)c(=O)oc2c1`, the photoluminescence quantum yield runs as follows: (in C1CCOC1) 0.611; (in CCCCCC) 0.564; (in CCO) 0.597; (in CS(C)=O) 0.585.
